The values that follow come from patent US20190175528A1, “INHIBITION OF BIOFILM ORGANISMS” (NovaBiotics Limited, priority 2009, published 2019).

Data set [1] has as its system P. aeruginosa ATCC BAA-47 (PAO1) persister cells. Description: Relative viability of persister cells (SYTO9/PI live/dead fluorescence, microscopy). The following applies: agent alone; FIG. 6, FIG. 8. It counts as cell-based, Pseudomonas aeruginosa. Here is the method: (§1) Following transfer of the supernatant from the challenge plates, the biofilms were rinsed once with sterile PBS (lx) and 100 μl of BacLight live/dead fluorescent staining solution (Invitrogen, Paisley, UK) containing 4 μM SYTO9 and 20 μM propidium iodide (PI) in sterile PBS (lx) were added to the wells of the challenge plates. The plates were incubated at room temperature in the dark for 15 min and the fluorescence was read at 485(ex)/528(em) and 485(ex)/645(em) for SYTO9 and PI fluorescence, respectively on a fluorescence microtitre plate reader (BioTek Synergy HT, Winooski, USA) with the sensitivity set at 50 and bottom optics position was selected. Direct observation of the biofilms with an Axiovert 40 fluorescence microscope (Zeiss, Gottingen, Germany) allowed identifying the presence of live and dead bacteria and pictures of the biofilms were taken at 100 to 400-fold magnification.
(§2) The relative viability of persister cells was determined by the live/dead fluorescence measurements ratio and microscopic observations were used to confirm the presence or absence of live cells.
The activity of NP108 and cysteamine against the persister cells was assessed using a fluorescence staining method to determine the relative viability of the cells. The nucleic acid-binding fluorescent molecules used were SYTO9 and PI, which penetrate all bacterial cells (green fluorescence) and membrane-disrupted cells (red fluorescence), respectively.

In another data set the test system is Staphylococcus spp (4). As to the kind of experiment: microbe, parasite or virus in culture. In kind it is cell-based. The following applies: agent alone; range over strains. Here is the method: (§3) The bacterial inoculum was established by the dilution method from actively-growing cultures in Mueller-Hinton broth, standardized with 0.5 McFarland turbidity standard as described in the CLSI method M26-A.
(§4) To determine the prevention of biofilm formation, both the bacterial inoculum and the antimicrobial agents were added simultaneously to the plates. The plates were incubated at 37° C. for 24 h and the optical density was read at 625 nm on a microtitre plate reader (BioTek Powerwave XS, Winooski, USA). The MIC was obtained as the lowest concentration of antimicrobial showing total inhibition of bacterial growth.
(§5) The FIC corresponds to an interaction coefficient indicating whether the combination of antimicrobial agents is synergistic, additive, antagonist or neutral. The FIC is determined by comparing the activity of an agent in combination (MIC of agent A+agent B) with the activity of the agent alone (MIC of agent A or agent B) as follow (Singh et al., 2000):
(§6) FIC=MICA[combination]/MICA[alone]+MICB[combination]/MICB[alone]
(§7) Additive combinations of two antimicrobial agents are indicated by a FIC index of 1, whereas a FIC index <1 indicates synergistic combinations. Neutral combinations would give a FIC between 1 and 4, a FIC index higher than 4 indicates antagonist effects between the two antimicrobial agents.
(§8) Summary of the activity of the tested antimicrobial agents against the Gram-negative P. aeruginosa strains and the Gram-positive Staphylococcus spp. The number into brackets indicates the maximum number of strains tested. MIC: minimum inhibition concentration; MBEC: minimum biofilm eradication concentration; FIC: fractional inhibitory concentration.

In data set [2] the test system is S. epidermidis 12228 biofilm cells. As to the kind of experiment: MBEC against 24 h-old biofilm. In kind it is cell-based, Staphylococcus epidermidis. The following applies: agent alone. The procedure:
(§9) A total volume of 100 μl bacterial inoculum in Mueller-Hinton was added to each well of 96-well plates (challenge plates) and the plates were incubated at 37° C. for 24 h on a gyrorotary shaking platform (Grant-bio PS-3D, Shepreth, England) at 24 rpm to allow for biofilm formation.
(§10) The challenge plates were then rinsed once with sterile PBS (lx) and two-fold serial dilutions of antimicrobial agents in Mueller-Hinton were added to the challenge plates. The challenge plates were incubated at 37° C. for 24 h on a gyrorotary shaking platform (Grant-bio PS-3D, Shepreth, England) at 24 rpm.
(§11) The supernatants from each of the challenge plates were transferred into fresh plates and the optical density was measured at 625 nm on a microtitre plate reader (BioTek Powerwave XS, Winooski, USA). The MBEC was obtained by the lowest concentration of antimicrobial showing no bacterial growth.
(§12) The assessment of the activity of NP108 and cysteamine against bacterial biofilms was carried out with 24 h-old biofilms and the activity of both compounds in combination was also determined. The activity of the antimicrobial agents against bacterial biofilms was determined by their activity against the biofilm cells and against the persister cells.

Data set [3] concerns Staphylococcus spp (4) persister cells. As to the kind of experiment: Persister cells in biofilms (live/dead staining), summary over strains. In kind it is cell-based. The following applies: agent alone; FIG. 8. Here is the method:
as §1, §2, §8

Data set [4] has as its system P. aeruginosa ATCC BAA-47 (PAO1) biofilm cells. Description: MBEC against 24 h-old biofilm. It counts as cell-based, Pseudomonas aeruginosa. The following applies: agent alone; FIG. 7. Here is the method: (§13) The FIC was also calculated to assess the interaction of two antimicrobial agents in combination against bacterial biofilms. The same formulae applied, using MBEC instead of MIC.
as §9, §10, §11, §12

Data set [5] has as its system P. aeruginosa strains (7). As to the kind of experiment: microbe, parasite or virus in culture. In kind it is cell-based, Pseudomonas aeruginosa. The following applies: agent alone; range over strains. The procedure:
as §3, §4, §5, §6, §7, §8

Data set [6] has as its system P. aeruginosa strains (7) biofilm cells. In kind it is cell-based, Pseudomonas aeruginosa. The following applies: agent alone. The procedure:
as §13, §9, §10, §11, §8

Data set [7] has as its system P. aeruginosa ATCC27853 biofilm cells. In kind it is cell-based, Pseudomonas aeruginosa. Here is the method:
as §9, §10, §11

In data set [8] the test system is P. aeruginosa strains (7) persister cells. Description: Persister cells in biofilms (live/dead staining), summary over strains. In kind it is cell-based, Pseudomonas aeruginosa. The following applies: agent alone. Here is the method:
as §1, §2, §8

Data set [9] deals with methicillin-resistant S. aureus (MRSA) DSM 11729 planktonic cells. As to the kind of experiment: Time course activity over a 48-h period against planktonic cells. In kind it is cell-based, Staphylococcus aureus. The following applies: 0.25 mg/ml. The source says: The range of concentrations tested as shown in the legends is in mg/ml.
The subject of data set [10] is P. aeruginosa ATCC27853 persister cells. Description: Relative viability of persister cells (SYTO9/PI live/dead fluorescence). In kind it is cell-based, Pseudomonas aeruginosa. The following applies: 1024 μg/ml NP341+3128 μg/ml N-acetylcysteine; FIG. 20b. The procedure:
as §1, §2

For data set [11], the system named is S. aureus DSM 11729 biofilm cells. In kind it is cell-based, Staphylococcus aureus. The following applies: agent alone. Here is the method:
as §13, §9, §10, §11, §12

Bounds are passed on as bounds.

In the case of `N=C(N)NCCC[C@@H](N)C(=O)N[C@H](CCCNC(=N)N)C(=O)N[C@H](CCCNC(=N)N)C(=O)N[C@H](CCCNC(=N)N)C(=O)N[C@H](CCCNC(=N)N)C(=O)N[C@H](CCCNC(=N)N)C(=O)N[C@H](CCCNC(=N)N)C(=O)N[C@H](CCCNC(=N)N)C(=O)N[C@H](CCCNC(=N)N)C(=O)N[C@H](CCCNC(=N)N)C(=O)N[C@H](CCCNC(=N)N)C(=O)N[C@H](CCCNC(=N)N)C(=O)N[C@H](CCCNC(=N)N)C(N)=O` [NP341, dRdRdRdRdRdRdRdRdRdRdRdRdR-CONH], the “concentration that inhibits the viability of P. aeruginosa BAA-47 (PAO1) persister cells” value in data set [1] was 625 µg/mL. Further, the “MIC, Staphylococcus spp (4)” value in the data set with Staphylococcus spp (4) is 250 µg/mL. The “MBEC, S. epidermidis 12228 biofilm cells” value in data set [2] came to 625 µg/mL. Moreover, the “decrease of viability of persister cells of the 3 Staphylococcus species” value in [3] lay in the range of 25 to 50%. Besides, the “reduction of viability of biofilm cells, P. aeruginosa BAA-47 (PAO1)” value in data set [4] fell in the range of 2 to 3 fold. For the same compound, the “MIC, P. aeruginosa strains (7)” value in data set [5] was determined as 31.25 µg/mL. The “MBEC, P. aeruginosa strains (7)” value in [6] was >5,000 μg/ml. In data set [7] (agent alone, FIG. 21a), the “MBEC alone, P. aeruginosa ATCC27853” value is “more than 2 mg/ml”. Further, the “NP341 needed to reach the MBEC in combination, P. aeruginosa ATCC27853” value in data set [7] (in combination with 3-6 mg/ml of N-acetylcysteine, FIG. 20a) was 205 µg/mL. For the same compound, the “Persisters, active concentration, P. aeruginosa strains (7)” value in data set [8] is 625 µg/mL. Further, the “duration of complete inhibition” value in data set [9] stood at 48 h. Moreover, the “inhibition of persister cells, P. aeruginosa ATCC27853” value in [10] is recorded as “approximately 75%”. In data set [11], the “MBEC, S. aureus (MRSA) DSM 11729 biofilm cells” value was found to be 625 µg/mL. Also, the “reduction of viability of biofilm cells, MRSA 11729” value in data set [11] (FIG. 7) is listed as 2 to 3 fold.
